Laboratory results as given in ChEMBL document CHEMBL1201862, “PubChem BioAssay data set” (2004).
Activity calls are given as the source filed them. Unless noted, the rule behind the calls is not given here.

What was measured:
[1] = L6 myocyte viability loss – cell-based, plate reader, cherry-pick, cytotoxicity control, dose response (AID 651896); type: functional
[2] = antileishmanial activity on axenic amastigotes – plate reader, cherry pick, dose response (AID 651891); type: functional, cell-based; conditions: Leishmania donovani
[3] = intracellular Trypanosoma cruzi inhibitors in host cells – cell-based, plate reader, cherry-pick samples, set 3, dose response (AID 651818); type: functional;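 also: compounds incubated with infected cells for about four days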
[4] = African trypanosome bloodstream form growth inhibition – STIB900 strain, plate reader, cherry pick, dose response (AID 651893); type: functional, cell-based, Trypanosoma brucei rhodesiense; conditions: Trypanosoma brucei
[5] = antimalarial activity against erythrocytic parasites – NF54 strain, plate reader, dry powder, dose response (AID 651889); type: functional, cell-based
[6] = host muscle cell viability loss – plate reader, dry powder, counter-screen for T. cruzi inhibitor project, dose response (AID 651895); type: functional, cell-based
[7] = T. cruzi growth inhibition in host cells, dose response, cell-based, plate reader, dry powder, set 2 (AID 652275); type: functional
[8] = Trypanosoma cruzi replication inhibitors in host cells – cell-based, plate reader, dry powder samples, dose response (AID 651845); type: functional
[9] = anti-trypanosomal activity in BESM host cells – imaging, CA-I/72 strain, bovine embryo skeletal muscle, dry powder, dose response (AID 651885); type: functional, cell-based
[10] = antileishmanial activity on axenic amastigotes – plate reader, dry powder, dose response (AID 651892); type: functional, cell-based
[11] = intracellular Chagas parasite inhibition in myoblasts – Tulahuen strain, L-6 host cells, dry powder, dose response (AID 651890); type: functional, cell-based
[12] = African trypanosome bloodstream form growth inhibition – STIB900 strain, plate reader, dry powder, dose response (AID 651894); type: functional, cell-based
[13] = biological target: G-protein coupled receptor 183 (Homo sapiens, UniProt P32249); assay: SAR confirmation of small molecule antagonists of the EBI2 receptor via a luminescent beta-arrestin assa.; type: functional
Phospholipase D2 = Phospholipase D2 (Homo sapiens, UniProt O14939); assay: PLD2 Cellular Concentration Response Study.; type: functional
Phospholipase D1 = biological target: T1, Phospholipase D1 (Homo sapiens, UniProt Q13393); assay: PLD1 Cellular Concentration Response Study.; type: functional
T1 sequence (Q13393 whole entry): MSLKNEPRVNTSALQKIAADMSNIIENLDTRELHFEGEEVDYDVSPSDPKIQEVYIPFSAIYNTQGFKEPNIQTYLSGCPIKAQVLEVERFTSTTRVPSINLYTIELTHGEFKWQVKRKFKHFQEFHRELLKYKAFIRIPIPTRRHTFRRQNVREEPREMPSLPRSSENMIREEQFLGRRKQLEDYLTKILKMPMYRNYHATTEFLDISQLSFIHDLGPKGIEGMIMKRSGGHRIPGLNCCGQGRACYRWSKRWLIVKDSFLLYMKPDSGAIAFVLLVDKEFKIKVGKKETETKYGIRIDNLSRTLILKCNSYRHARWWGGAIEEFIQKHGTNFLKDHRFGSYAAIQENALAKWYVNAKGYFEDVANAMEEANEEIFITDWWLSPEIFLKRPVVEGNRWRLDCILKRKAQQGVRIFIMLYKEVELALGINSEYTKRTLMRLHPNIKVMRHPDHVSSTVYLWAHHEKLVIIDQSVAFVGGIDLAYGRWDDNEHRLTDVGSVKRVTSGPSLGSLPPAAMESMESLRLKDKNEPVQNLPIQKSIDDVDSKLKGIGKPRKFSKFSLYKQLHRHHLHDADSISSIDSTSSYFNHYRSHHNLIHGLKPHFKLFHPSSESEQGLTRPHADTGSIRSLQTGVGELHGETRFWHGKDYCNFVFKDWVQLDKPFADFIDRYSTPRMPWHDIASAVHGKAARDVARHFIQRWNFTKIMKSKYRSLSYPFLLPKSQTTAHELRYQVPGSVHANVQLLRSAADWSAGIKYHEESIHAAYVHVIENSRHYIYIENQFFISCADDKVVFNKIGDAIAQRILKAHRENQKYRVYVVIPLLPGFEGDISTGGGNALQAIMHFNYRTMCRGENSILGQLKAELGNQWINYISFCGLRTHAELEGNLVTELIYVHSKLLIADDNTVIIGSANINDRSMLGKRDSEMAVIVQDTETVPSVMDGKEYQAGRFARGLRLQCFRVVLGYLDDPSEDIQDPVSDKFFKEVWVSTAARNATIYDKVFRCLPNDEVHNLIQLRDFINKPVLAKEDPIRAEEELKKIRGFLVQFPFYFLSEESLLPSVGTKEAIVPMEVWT

[14] = IC50 of insulin release inhibition, rat insulinoma INS-1E line, 5 mM glucose, cell-based (AID 1117331); type: functional
[15] = glucagon-like peptide-1 release potency in STC-1, concentration-response, half-maximal inhibitory concentration in the STC-1 line (AID 1117345); type: functional, cell-based
[16] = Potency on glucagon-like peptide 1 release, dose-response in NCI-H716 cell line, half maximal inhibitory concentration (AID 1117344); type: functional, cell-based

G-protein coupled receptor 183, sequence (P32249 whole entry): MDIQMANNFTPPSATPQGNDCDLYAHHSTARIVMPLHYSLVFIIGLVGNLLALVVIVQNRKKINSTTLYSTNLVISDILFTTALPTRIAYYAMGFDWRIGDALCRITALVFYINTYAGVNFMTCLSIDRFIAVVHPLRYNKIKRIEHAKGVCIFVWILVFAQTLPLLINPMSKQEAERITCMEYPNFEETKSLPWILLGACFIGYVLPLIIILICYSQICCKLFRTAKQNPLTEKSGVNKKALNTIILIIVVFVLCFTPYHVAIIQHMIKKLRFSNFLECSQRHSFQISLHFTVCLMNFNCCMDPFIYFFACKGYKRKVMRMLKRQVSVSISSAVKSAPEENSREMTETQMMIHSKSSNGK
Phospholipase D2, sequence (O14939 whole entry): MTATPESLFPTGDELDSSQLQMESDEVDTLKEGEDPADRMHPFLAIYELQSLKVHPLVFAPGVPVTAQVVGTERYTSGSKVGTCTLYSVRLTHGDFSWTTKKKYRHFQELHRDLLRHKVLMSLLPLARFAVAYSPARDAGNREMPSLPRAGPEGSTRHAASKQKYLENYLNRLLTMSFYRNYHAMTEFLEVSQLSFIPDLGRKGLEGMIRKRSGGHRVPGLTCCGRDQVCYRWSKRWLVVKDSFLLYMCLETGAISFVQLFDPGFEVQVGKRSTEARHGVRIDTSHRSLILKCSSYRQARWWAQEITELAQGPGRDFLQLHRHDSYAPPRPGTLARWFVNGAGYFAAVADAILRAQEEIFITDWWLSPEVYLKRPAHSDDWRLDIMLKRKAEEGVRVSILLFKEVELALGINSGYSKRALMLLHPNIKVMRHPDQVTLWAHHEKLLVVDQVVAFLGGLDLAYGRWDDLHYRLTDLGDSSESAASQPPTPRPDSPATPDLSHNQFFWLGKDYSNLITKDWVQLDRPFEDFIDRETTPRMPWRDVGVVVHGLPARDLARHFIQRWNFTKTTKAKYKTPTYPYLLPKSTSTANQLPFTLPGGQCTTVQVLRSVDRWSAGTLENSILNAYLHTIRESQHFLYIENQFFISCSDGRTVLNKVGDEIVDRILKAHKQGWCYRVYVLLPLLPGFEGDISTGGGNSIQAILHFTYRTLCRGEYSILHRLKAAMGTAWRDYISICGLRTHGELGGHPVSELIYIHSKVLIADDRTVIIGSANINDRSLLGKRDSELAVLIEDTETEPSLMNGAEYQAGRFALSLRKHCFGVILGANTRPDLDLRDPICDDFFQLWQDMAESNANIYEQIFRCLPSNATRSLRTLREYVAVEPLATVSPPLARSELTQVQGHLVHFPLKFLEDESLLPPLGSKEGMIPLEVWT

For `C[C@H](CO)N1C[C@H](C)[C@H](CN(C)Cc2ccc(Oc3ccccc3)cc2)Oc2c(NC(=O)c3ccncc3)cccc2C1=O`, the IC50 [1] was 52.2 µM (active), the IC50 [2] was > 100 µM (inactive) and the AC50 [3] was 75 nM (active). For the same molecule, the IC50 [4] was 18.5 µM (inactive), the IC50 [5] was 2.32 µM (inactive) and the IC50 [6] was 54.7 µM (inactive). The AC50 [7] was 1.27 nM (active), the AC50 [8] was 15.8 nM (active) and the IC50 [9] was 9.8 nM (active). The IC50 [10] was > 100 µM (inactive), the IC50 [11] was 75.5 nM (active) and the IC50 [12] was 22.2 µM (inactive).

With `O=C(/C=C/c1ccc(Cl)c(Cl)c1)N1CCN(C(=O)c2ccc(Cl)cc2)CC1` the IC50 [13] was 1.17 nM (active).

In the case of `O=C(NCCN1CCC2(CC1)C(=O)NCN2Cc1cccnc1)c1ccc(Cl)c(Cl)c1`, the IC50 (Phospholipase D2) is reported as 1.24 µM (active) and the IC50 (Phospholipase D1) is reported as 20 µM (active).

In the case of `NC(=O)C1(N2CCCCC2)CCN(CCCN2c3ccccc3CCc3ccc(Cl)cc32)CC1` [CLOCAPRAMINE], the IC50 [14] is reported as 10.1 µM (inactive), the IC50 [15] is reported as > 40 µM (inactive) and the IC50 [16] is reported as 18.3 µM (inactive).
